Legend:
[1] = test system: U87-MG glioblastoma cell line; experiment: MTT cell proliferation assay, U87-MG; assay type: cell-based; conditions: for IC50: 0–160 μM; for activity at 10 µM: compound 10 μM, 48 h, read-out: Cell Proliferation ± Std dev. (%) U87
Method: (§1) U87-MG (HTB-16) and U138-MG (HTB-14) lines were purchased from ATCC. The cells were cultured in DMEM-HG Medium (41966-029, Gibco, Grand Island, NE, USA) and supplemented with 10% fetal bovine serum (FBS, 10500-064, Gibco) and 1% Penicillin–Streptomycin (P/S, 15140-122, Gibco). After 24 h of seeding cells, all compounds dissolved in 0.4% dimethyl sulfoxide (DMSO, A3672-0250, AppliChem, Darmstadt, Germany) were treated in the cells.
(§2) The proliferation effects of the drug candidates on the U87-MG and U138-MG cell lines were tested using the MTT (3-(4,5-dimethylthiazol-2-yl)-2,5-diphenyltetrazolium bromide) assay. A total of 7 × 10^3 cells per well of both U87-MG and U138-MG cells were seeded into a 96-well plate in triplicate for the assay. After 24 h, each compound was added at a dose of 10 μM and incubated for 48 h. After the incubation period, 10 μL of MTT solution (5 mg/mL in PBS) was added to each well. The MTT solution was aspirated from the wells after 2 h. Then, 100 μL of DMSO was added and mixed to dissolve the formazan crystals. Cell proliferation was analysed by measuring the absorbance of the dissolved formazan at a wavelength of 570 nm using a microplate reader (Epoch, San Jose, CA, USA). […] Each experiment was carried out in triplicate to ensure reliability and statistical significance.

[2] = test system: U138-MG glioblastoma cell line; experiment: MTT cell proliferation assay, U138-MG; assay type: cell-based; conditions: for activity at 10 µM / inhibition at 10 µM / IC50: Homo sapiens; for activity at 10 µM: compound 10 μM, 48 h, read-out: Cell Proliferation ± Std dev. (%) U138; for activity at 10 µM / IC50: MTT; for inhibition at 10 µM: read-out: cell inhibition percentage (activity); for IC50: 0–160 μM
Method: as §1
as §2, with “After 24 h, each compound was added at a dose of 10 μM and incubated for 48 h.” left out

[3] = PAMPA, BBB-mimicking membrane; assay type: in vitro ADME; conditions: 500 μM, 18 h, 37 °C
Method: (§3) The permeability of the synthesised compounds was evaluated using the parallel artificial membrane permeability assay (PAMPA) to estimate their ability to cross biological membrane mimics of both the gastrointestinal (GI) membrane and the blood–brain barrier (BBB).
(§4) The PAMPA assay (BioAssay System, Hayward, CA 94545, USA) has been used for testing the permeability rates of drugs through the BBB-mimicking membrane. […] The permeability assay was performed for 18 h in a 37 °C incubator.

[4] = PAMPA, GI-mimicking membrane; assay type: in vitro ADME; conditions: class relative to high and low permeability controls
Method: as §3, §4

[5] = equals 100 minus cell proliferation of Table 1 (10 μM, 48 h)

## O=C(COc1ccc2c(c1)CCC(=O)N2)N/N=C/c1ccc(-c2ccccc2)cc1 [4v, (E)-N′-([1,1′-Biphenyl]-4-Ylmethylene)-2-((2-Oxo-1,2,3,4-Tetrahydroquinolin-6-Yl)Oxy)Acetohydrazide]
[1]; Homo sapiens, U-87 MG
  IC50: 11.7 µM

## O=C(COc1ccc2c(c1)CCC(=O)N2)N/N=C/c1ccc(-c2ccc(Cl)cc2)cc1 [4w, (E)-N′-((4′-Chloro-[1,1′-Biphenyl]-4-Yl)Methylene)-2-((2-Oxo-1,2,3,4-Tetrahydroquinolin-6-Yl)Oxy)Acetohydrazide]
[1]; Homo sapiens, U-87 MG
  activity at 10 µM: 63 ± 2.5%
[2]
  activity at 10 µM: 80 ± 6.9%
[2]; [5]
  inhibition at 10 µM: 20%

## O=C(COc1ccc2c(c1)CCC(=O)N2)N/N=C/c1ccccc1 [4j, (E)-N′-Benzylidene-2-((2-Oxo-1,2,3,4-Tetrahydroquinolin-6-Yl)Oxy)Acetohydrazide]
[3]
  Permeability through BBB-mimicking membrane (class in words): high permeability

## CN1C(=O)/C(=N\NC(=O)COc2ccc3c(c2)CCC(=O)N3)c2cc(F)ccc21 [4l, (Z)-N′-(5-Fluoro-1-Methyl-2-Oxoindolin-3-Ylidene)-2-((2-Oxo-1,2,3,4-Tetrahydroquinolin-6-Yl)Oxy)Acetohydrazide]
[2]
  activity at 10 µM: 73 ± 3.6%

## Cn1nnc2c(C(N)=O)ncn2c1=O [TMZ, temozolomide, reference compound]
[1]; Homo sapiens, U-87 MG
  IC50: 92.9 µM
  activity at 10 µM: 80 ± 5%
[2]
  IC50: 93.1 µM
  activity at 10 µM: 78 ± 5%
[3]
  Permeability through BBB-mimicking membrane (class in words): lower permeability
[4]
  Permeability through GI-mimicking membrane (class in words): lower permeability

## Cc1[nH]c2ccccc2c1/C=N/NC(=O)COc1ccc2c(c1)CCC(=O)N2 [4g, (E)-N′-((2-Methyl-1H-Indol-3-Yl)Methylene)-2-((2-Oxo-1,2,3,4-Tetrahydroquinolin-6-Yl)Oxy)Acetohydrazide]
[2]
  IC50: 9.2 µM

## O=C(COc1ccc2c(c1)CCC(=O)N2)N/N=C1\C(=O)Nc2ccc(F)cc21 [4m, (Z)-N′-(5-Fluoro-2-Oxoindolin-3-Ylidene)-2-((2-Oxo-1,2,3,4-Tetrahydroquinolin-6-Yl)Oxy)Acetohydrazide]
[2]
  IC50: 4.2 µM

## O=C(COc1ccc2c(c1)CCC(=O)N2)N/N=C/c1cccc2ccccc12 [4u, (E)-N′-(Naphthalen-1-Ylmethylene)-2-((2-Oxo-1,2,3,4-Tetrahydroquinolin-6-Yl)Oxy)Acetohydrazide]
[1]; Homo sapiens, U-87 MG
  IC50: 7.96 µM

## O=C(COc1ccc2c(c1)CCC(=O)N2)N/N=C/c1cccc(Oc2ccc(Cl)cc2)c1 [4t, (E)-N′-(3-(4-Chlorophenoxy)Benzylidene)-2-((2-Oxo-1,2,3,4-Tetrahydroquinolin-6-Yl)Oxy)Acetohydrazide]
[1]
  IC50: 10.5 µM
[1]; Homo sapiens, U-87 MG
  IC50: 10.7 µM
  activity at 10 µM: 50 ± 3.2%
[2]
  activity at 10 µM: 65 ± 3.5%
[3]
  Permeability through BBB-mimicking membrane (class in words): high permeability

## CCCc1ccc(/C=N/NC(=O)COc2ccc3c(c2)CCC(=O)N3)cc1 [4h, (E)-2-((2-Oxo-1,2,3,4-Tetrahydroquinolin-6-Yl)Oxy)-N′-(4-Propylbenzylidene)Acetohydrazide]
[2]
  activity at 10 µM: 100 ± 2.3%
[2]; [5]
  inhibition at 10 µM: 0%
[3]
  Permeability through BBB-mimicking membrane (class in words): high permeability

## O=C(COc1ccc2c(c1)CCC(=O)N2)N/N=C/c1ccc(Cl)cc1 [4b, (E)-N′-(4-Chlorobenzylidene)-2-((2-Oxo-1,2,3,4-Tetrahydroquinolin-6-Yl) Oxy) Acetohydrazide]
[2]; [5]
  inhibition at 10 µM: 40%

## O=C(COc1ccc2c(c1)CCC(=O)N2)N/N=C1\C(=O)Nc2ccc([N+](=O)[O-])cc21 [4o, (Z)-N′-(5-Nitro-2-Oxoindolin-3-Ylidene)-2-((2-Oxo-1,2,3,4-Tetrahydroquinolin-6-Yl)Oxy)Acetohydrazide]
[2]; [5]
  cell inhibition percentage (activity): moderate activity

## O=C(COc1ccc2c(c1)CCC(=O)N2)N/N=C/c1cnc(-c2ccc(Cl)cc2)nc1 [4q, (E)-N′-((2-(4-Chlorophenyl)Pyrimidin-5-Yl)Methylene)-2-((2-Oxo-1,2,3,4-Tetrahydroquinolin-6-Yl)Oxy)Acetohydrazide]
[1]; Homo sapiens, U-87 MG
  activity at 10 µM: 67 ± 4.9%
[2]
  IC50: 8 µM
  activity at 10 µM: 39 ± 3%
[2]; [5]
  inhibition at 10 µM: 61%

## O=C(COc1ccc2c(c1)CCC(=O)N2)NN=Cc1cccs1 [4d, 2-((2-Oxo-1,2,3,4-Tetrahydroquinolin-6-Yl)Oxy)-N′-(Thiophen-2-Ylmethylene)Acetohydrazide]
[4]
  Permeability through GI-mimicking membrane (class in words): high permeability

## O=C(COc1ccc2c(c1)CCC(=O)N2)N/N=C/c1ccc(F)cc1 [4s, (E)-N′-(4-Fluorobenzylidene)-2-((2-Oxo-1,2,3,4-Tetrahydroquinolin-6-Yl)Oxy)Acetohydrazide]
[4]
  Permeability through GI-mimicking membrane (class in words): high permeability
